Consider two compounds from patent US20090253634A1, “Methods and Compositions for the Treatment of Gastrointestinal Disorders” (MICROBIA, INC., priority 2005, published 2009).

The target in series [1] is T1, GC-C receptors on the cell surface of human colonic cells (T84 cells) (Homo sapiens, UniProt P25092).
T1 construct: 2.5×10^5 T84 cells (0.25 mg protein); host or cells: T84 human colonic cells
Put plainly: competitive radioligand-binding assay on T84 cells. How it is done:
The radiolabeled tracer used in these experiments was ^125I-SEQ ID NO:7. To determine binding constants, competitive inhibition of binding was used. T84 cells were cultured in T-150 plastic flasks in DMEM and Ham's F-12 medium containing 5% fetal bovine serum. Monolayers at 60-70% confluency (approximately 10^7 cells) were collected by gentle scraping followed by centrifugation, and washed twice in 50 mL of phosphate-buffered saline (PBS). The cells were resuspended in 1 mL DMEM containing 20 mM […] (Hepes), pH 7.0 and 0.5% bovine serum albumin (BSA). T84 cells were incubated with a constant amount of ^125I-SEQ ID NO:7 containing various concentrations of cold competitor. Free ^125I-SEQ ID NO:7 was separated from bound tracer by rapid suction filtration. The binding reactions were carried out in 1.5 mL microfuge tubes in 0.24 mL of DMEM/20 mM Hepes pH 7.0/0.5% BSA containing: 2.5×10^5 T84 cells (0.25 mg protein), 200,000 cpm ^125I-SEQ ID NO:7 (41 fmol, 170 pM), and 0.01 to 1,000 nM competitor. Binding assays at pH 5.0 were done in DMEM/20 mM 2-(N-morpholino) ethanesulfonic acid (Mes), pH 5.0. Binding assays in pH 8.0 were done in DMEM/20 mM Hepes/50 mM sodium bicarbonate pH 8.0. One sample contained no competitor (B0) and another contained no cells. After incubation at 37° C. for 1 h, the reaction mixtures were applied to Whatman GF/B glass-fiber filters by suction filtration. The filters were then rinsed with 10 mL ice-cold PBS buffer, inserted into plastic tubes, and added to 2 mL scintillation fluid. Radioactivity was measured in a LS 6500 liquid scintillation counter (Beckman-Coulter). The percent bound in each sample is calculated by the equation:
% B/B0=(sample cpm−no cells cpm)×100/(B0cpm−no cells cpm)
Competitive radioligand-binding curves were generated using the Graphpad PRISM™ computer program. […]

Series [2] is described as follows: oral bioavailability in rats, LCMS detection. The series is classed as in vivo. The settings on record: for AUC / bioavailability: rat, plasma, 10 mg/kg; for bioavailability: oral, read-out: 6 h bioavailability determined by circulating plasma levels. How it is done: Similarly, oral bioavailabity was determined in rats using LCMS methodology. Rat plasma samples containing SEQ ID NO:3 and/or SEQ ID NO:6 were extracted using a Waters Oasis MAX 96 well solid phase extraction (SPE) plate. A 200 μL volume of rat plasma was mixed with 200 μL of ^13C9, ^15N—SEQ ID NO:3 in the well of a prepared SPE plate. The samples were drawn through the stationary phase with 15 mm Hg vacuum. All samples were rinsed with 200 μL of 2% ammonium hydroxide in water followed by 200 μL of 20% methanol in water. The samples were eluted with consecutive 100 μL volumes of 5/20/75 formic acid/water/methanol and 100 μL 5/15/80 formic acid/water/methanol. The samples were dried under nitrogen and resuspended in 100 μL of 20% methanol in water. Samples were analyzed by a Waters Quattro Micro mass spectrometer coupled to a Waters 1525 binary pump with a Waters 2777 autosampler. A 40 μL volume of each sample was injected onto a Thermo Hypersil GOLD C18 column (2.1×50 mm, 5 um). SEQ ID NO:3 and SEQ ID NO:6 were eluted by a gradient over 3 minutes with acetonitrile and water containing 0.05% trifluoroacetic acid. The Quattro Micro mass spectrometer was run in multiple reaction monitoring (MRM) mode using the mass transitions of 764>182 and 682>136 for SEQ ID NO:3 and SEQ ID NO:6 respectively. Using this methodology, SEQ ID NO:3 was dosed orally and by IV to rats at 10 mg/kg. […] To determine the oral biovailability of SEQ ID NO:6, this peptide was dosed to rats at 10 mg/kg. In this experiment, the limit of detection (LOD) for SEQ ID NO:6 was 0.78 nM. SEQ ID NO:6 was detected at all time points for the intravenous dose and was not detected beyond 240 min for the oral dose. For non-detected values, the LOD was used as an upper estimate of the concentration of SEQ ID NO:6. The calculated value for AUCp.o., (0-6h) was […] and AUCi.v., (0-6h) was 1,590,000 nM-min. The 6 h bioavailability of SEQ ID NO:6 determined by circulating plasma levels was 0.08%

Like-named read-outs stand apart in the source and are kept apart here. Bridge positions count the residues as written; N and C are the ends. Peptide text beside a SMILES is read from it. Where only a bound is given, the exact number is not on record here.

T1 sequence (P25092 24-1073): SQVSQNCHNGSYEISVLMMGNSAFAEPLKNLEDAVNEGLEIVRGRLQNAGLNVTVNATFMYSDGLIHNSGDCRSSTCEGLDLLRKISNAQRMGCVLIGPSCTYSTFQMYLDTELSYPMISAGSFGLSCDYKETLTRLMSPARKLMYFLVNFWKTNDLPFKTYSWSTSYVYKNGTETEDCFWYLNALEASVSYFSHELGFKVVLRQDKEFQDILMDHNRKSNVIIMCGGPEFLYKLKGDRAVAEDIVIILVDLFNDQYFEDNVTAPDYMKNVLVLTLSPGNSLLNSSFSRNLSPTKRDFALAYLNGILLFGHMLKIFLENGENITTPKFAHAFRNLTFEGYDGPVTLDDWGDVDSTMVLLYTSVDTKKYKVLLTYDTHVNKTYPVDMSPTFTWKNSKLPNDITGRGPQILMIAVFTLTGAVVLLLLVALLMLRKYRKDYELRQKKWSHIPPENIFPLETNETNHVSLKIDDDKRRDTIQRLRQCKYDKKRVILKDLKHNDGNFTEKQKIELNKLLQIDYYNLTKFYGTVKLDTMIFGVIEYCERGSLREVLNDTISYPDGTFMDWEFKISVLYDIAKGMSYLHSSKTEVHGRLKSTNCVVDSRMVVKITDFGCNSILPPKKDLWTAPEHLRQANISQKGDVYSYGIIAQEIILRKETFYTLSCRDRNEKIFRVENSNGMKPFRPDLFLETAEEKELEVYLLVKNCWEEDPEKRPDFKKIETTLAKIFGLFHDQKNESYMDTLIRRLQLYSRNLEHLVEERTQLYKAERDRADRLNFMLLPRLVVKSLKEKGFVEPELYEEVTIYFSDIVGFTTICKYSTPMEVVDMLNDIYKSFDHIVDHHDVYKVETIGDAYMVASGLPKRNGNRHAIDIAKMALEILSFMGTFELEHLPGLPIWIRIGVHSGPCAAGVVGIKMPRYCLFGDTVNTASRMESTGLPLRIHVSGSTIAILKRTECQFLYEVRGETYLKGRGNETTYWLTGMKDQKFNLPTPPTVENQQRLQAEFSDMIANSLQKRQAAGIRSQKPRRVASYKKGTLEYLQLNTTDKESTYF

Turning to `C[C@@H]1NC(=O)[C@@H]2CCCN2C(=O)[C@H](CC(N)=O)NC(=O)[C@@H]2CSSC[C@H](N)C(=O)N[C@H]3CSSC[C@H](NC1=O)C(=O)N[C@@H]([C@@H](C)O)C(=O)NCC(=O)N[C@H](C(=O)N[C@@H](Cc1ccc(O)cc1)C(=O)O)CSSC[C@H](NC(=O)[C@H](Cc1ccc(O)cc1)NC(=O)[C@H](CCC(=O)O)NC3=O)C(=O)N2` [SEQ ID NO:3] (H-CCEYCCNPACTGCY-OH; disulfide 1-6, 2-10, 5-13; N-terminus and C-terminus assumed), in series [1] (pH 5, 7 and 8), the “effect of pH on binding to the high affinity site, Ki1” value is reported as “not affected by pH”. For the same compound, the AUC was 12.3 µM·h in series [2] (iv, rats, 10 mg/kg IV, LCMS, read-out: AUC of SEQ ID NO:3, intravenously administered (converted)) and 0.0129 µM·h in series [2] (po, rats, 10 mg/kg oral, LCMS, read-out: AUC of SEQ ID NO:3, orally dosed (converted)). Moreover, the bioavailability in series [2] (rats, LCMS) stood at 0.11%. In addition, the “6 h bioavailability when AUC values for SEQ ID NO:6 are included” value in series [2] (rats, SEQ ID NO:3 10 mg/kg, LCMS) came to 0.13%.
Take `C[C@@H]1NC(=O)[C@@H]2CCCN2C(=O)[C@H](CC(N)=O)NC(=O)[C@@H]2CSSC[C@H](N)C(=O)N[C@H]3CSSC[C@H](NC1=O)C(=O)N[C@@H]([C@@H](C)O)C(=O)NCC(=O)N[C@H](C(=O)O)CSSC[C@H](NC(=O)[C@H](Cc1ccc(O)cc1)NC(=O)[C@H](CCC(=O)O)NC3=O)C(=O)N2` [SEQ ID NO:6] (H-CCEYCCNPACTGC-OH; disulfide 1-6, 2-10, 5-13): the Ki is 1.57 nM in series [1] and 446 nM in series [1] (read-out: Ki2 (low affinity site), pH 7.0, T84 cells, tracer 125I-SEQ ID NO:7). Also, the AUC in series [2] (iv, rats, SEQ ID NO:3 10 mg/kg IV, metabolite, read-out: AUC for SEQ ID NO:6 in SEQ ID NO:3 intravenously dosed rats (converted)) was 0.0597 µM·h; in series [2] (iv, rats, SEQ ID NO:6 10 mg/kg intravenous, read-out: AUCi.v., (0-6h) (converted)) it was 26.5 µM·h; in series [2] (po, rats, SEQ ID NO:3 10 mg/kg oral, metabolite, read-out: AUC for SEQ ID NO:6 in rats dosed orally with SEQ ID NO:3 (converted)) it was 0.0036 µM·h; in series [2] (po, rats, SEQ ID NO:6 10 mg/kg oral, LOD used for non-detected values, read-out: AUCp.o., (0-6h)), under 0.0218 µM·h. In addition, the bioavailability in series [2] (rats, LCMS) was determined as 0.08%. Besides, the “detection as metabolite in plasma” value in series [2] (rats dosed with SEQ ID NO:3) was “detected in the plasma”. The “last time detected in plasma after the oral dose” value in series [2] (rats, SEQ ID NO:6 10 mg/kg oral, LOD 0.78 nM) is listed as at most 240 min.
